The text below walks through data of PMC6151428, “Discovery of Novel N-Substituted Prolinamido Indazoles as Potent Rho Kinase Inhibitors and Vasorelaxation Agents” (Molecules : A Journal of Synthetic Chemistry and Natural …, 2017).

Series [1] concerns the target T1, ROCK I (Homo sapiens, UniProt Q13464).
T1 construct: purchased Cyclex, Nagoya, Japan CY-1160
Description: Rho kinase activity assay (Cyclex CY-1160 kit). The series is classed as biochemical. The following applies: for IC50: a: means of multiple experiments (N = 4), errors within 30% of the mean, b: single determinations, read-out: IC50 against ROCK I; for ROCK I activity compared in words: comparison with DL0805 or between series; for inhibition at 20 µM: compound concentration 20 μM, single determinations; for fold more active than DL0805 (ROCK I IC50): relative to DL0805 IC50 6.7 μM. Here is the method:
Briefly, the compounds at 20 μM were pre-incubated in a system wherein ROCK I (0.02 ng/μL) phosphorylates the kinase substrate’s myosin-binding subunit (MBS) pre-absorbed onto the microplate in the presence of Mg^2+ and ATP. Then, the system was washed after incubation at 30 °C for 30 min. 100 μL of horseradish peroxidase-conjugated anti-AF20 antibody was added to the wells and then incubated for 30 min at room temperature. The reaction system was then incubated with the substrate tetra-methylbenzidine (TMB), which can be catalyzed from a colorless solution to a blue solution. The absorbance was measured at a wavelength of 450 nm on a microplate reader. The color reflects the relative level of ROCK I activity. The inhibitory rates of the compounds on ROCK I were obtained from OD 450 nm and the IC50 values were calculated by nonlinear regression.

Series [2] has as its system rat aortic rings. Put plainly: Vasorelaxant activity test, high-potassium model. The following applies: rat aortic rings constricted with high K+ (60 mmol/L); a: mean N = 6; b: single determination; -- = No activity. The text has this:
(§1) Abnormalities in the Rho/ROCK signaling pathway are associated with various cardiovascular diseases, especially hypertension. The inhibition of the Rho/ROCK pathway can cause the vessels to relax. The norepinephrine (NE)- or potassium chloride (KCl)-induced model of the rat aortic ring can trigger sustained vessel contraction and is usually used to evaluate vasorelaxant activity. DL0805 has shown vasorelaxant activity. Therefore, the nine compounds with significant inhibition against ROCK I were further tested for their vasorelaxant activity in rat aortic rings in both the high-potassium and NE models (Table 3). […] The potent active compound 4b with excellent activity has been further evaluated, and further pharmacokinetic and safety evaluations are in progress.
(§2) Male Sprague-Dawley rats weighing 240–280 g (Vital River Laboratories, Beijing, China) were maintained in a 12-h light/dark cycle at 24 °C in a relative humidity of 60% room, and received food and water ad libitum. The animal care and handling were performed in accordance with the Guide for the Care and Use of Laboratory Animals published by the US National Institutes of Health and the Laboratories Institutional Animal Care and Use Committee of the Chinese Academy of Medical Science and Peking Union Medical College (ethic approval number: 00001012).
(§3) The vasorelaxant activity assay was performed as described previously. Briefly, the descending thoracic aorta was isolated after rats were euthanized by cervical dislocation. Then, the aorta was cut into ring segments (3–4 mm in length). The endothelial layer of the aorta was destroyed by gently rubbing the luminal surface with a moist cotton swab when necessary. Two stainless-steel triangles were inserted into the lumen of each ring. One triangle was fixed, and the other attached to a force transducer. Changes in isometric force were recorded on a BIOPAC polygraph (MP100WSW, Biopac Systems, Inc, Goleta, CA, USA). The rings were mounted in organ baths containing 10 mL Krebs-Henseleit (K-H) buffer with the following composition (mM): NaCl 120, KCl 4.8, MgSO4 1.4, KH2PO4 1.2, glucose 11.0, CaCl2 2.5, NaHCO3 25.0 and EDTA 0.01. The K-H buffer was continuously bubbled with 95% O2/5% CO2 at 37 °C. Rings were allowed to equilibrate for 60 min at a resting tension of 1.2 g with changes of buffer every 20 min.
(§4) After the equilibration period, the aortic rings were constricted with a high K^+ (60 mM) K-H solution to stimulate the tissue and to test its availability. Then, the rings were washed with normal K-H buffer to restore the basic tension of 1.2 g. The aortic rings were then stimulated with a high K^+ (60 mmol/L) K-H buffer ornorepinephrine (1 μM) to evaluate the vasorelaxant effects of the compounds. When the contraction reached the platform, compounds were added to the bath in batches at 5-min intervals to reach the accumulative concentrations of 1, 2, 5, 10, 25 and 50 μM. The tension of vessels was recorded and nonlinear regression was used to calculate the EC50 values.

Series [3] deals with rat aortic rings. Description: Vasorelaxant activity test, NE model. The following applies: rat aortic rings constricted with norepinephrine (1 μM); a: mean N = 6; b: single determination; -- = No activity.
From the text: as §1, §2, §3, §4

Series [4] concerns rat aortic rings. Put plainly: Ex-vivo vasorelaxant activity in rat aortic rings (model not specified).
From the text: as §1
The vasorelaxant activity assay was performed as described previously. Briefly, the descending thoracic aorta was isolated after rats were euthanized by cervical dislocation. Then, the aorta was cut into ring segments (3–4 mm in length). […] Changes in isometric force were recorded on a BIOPAC polygraph (MP100WSW, Biopac Systems, Inc, Goleta, CA, USA). […]
After the equilibration period, the aortic rings were constricted with a high K^+ (60 mM) K-H solution to stimulate the tissue and to test its availability. […] The tension of vessels was recorded and nonlinear regression was used to calculate the EC50 values.

The target of series [5] is T1, ROCK I. Set-up: method as in PMID 22609784. The following applies: lead discovered by high-throughput screening, previous article; read-out: IC50 against ROCK I; cited from earlier work.

SMILES strings stand for the structures. Where two headings read alike, the source gives them in different places.

T1 sequence (Q13464 whole entry, species assumed): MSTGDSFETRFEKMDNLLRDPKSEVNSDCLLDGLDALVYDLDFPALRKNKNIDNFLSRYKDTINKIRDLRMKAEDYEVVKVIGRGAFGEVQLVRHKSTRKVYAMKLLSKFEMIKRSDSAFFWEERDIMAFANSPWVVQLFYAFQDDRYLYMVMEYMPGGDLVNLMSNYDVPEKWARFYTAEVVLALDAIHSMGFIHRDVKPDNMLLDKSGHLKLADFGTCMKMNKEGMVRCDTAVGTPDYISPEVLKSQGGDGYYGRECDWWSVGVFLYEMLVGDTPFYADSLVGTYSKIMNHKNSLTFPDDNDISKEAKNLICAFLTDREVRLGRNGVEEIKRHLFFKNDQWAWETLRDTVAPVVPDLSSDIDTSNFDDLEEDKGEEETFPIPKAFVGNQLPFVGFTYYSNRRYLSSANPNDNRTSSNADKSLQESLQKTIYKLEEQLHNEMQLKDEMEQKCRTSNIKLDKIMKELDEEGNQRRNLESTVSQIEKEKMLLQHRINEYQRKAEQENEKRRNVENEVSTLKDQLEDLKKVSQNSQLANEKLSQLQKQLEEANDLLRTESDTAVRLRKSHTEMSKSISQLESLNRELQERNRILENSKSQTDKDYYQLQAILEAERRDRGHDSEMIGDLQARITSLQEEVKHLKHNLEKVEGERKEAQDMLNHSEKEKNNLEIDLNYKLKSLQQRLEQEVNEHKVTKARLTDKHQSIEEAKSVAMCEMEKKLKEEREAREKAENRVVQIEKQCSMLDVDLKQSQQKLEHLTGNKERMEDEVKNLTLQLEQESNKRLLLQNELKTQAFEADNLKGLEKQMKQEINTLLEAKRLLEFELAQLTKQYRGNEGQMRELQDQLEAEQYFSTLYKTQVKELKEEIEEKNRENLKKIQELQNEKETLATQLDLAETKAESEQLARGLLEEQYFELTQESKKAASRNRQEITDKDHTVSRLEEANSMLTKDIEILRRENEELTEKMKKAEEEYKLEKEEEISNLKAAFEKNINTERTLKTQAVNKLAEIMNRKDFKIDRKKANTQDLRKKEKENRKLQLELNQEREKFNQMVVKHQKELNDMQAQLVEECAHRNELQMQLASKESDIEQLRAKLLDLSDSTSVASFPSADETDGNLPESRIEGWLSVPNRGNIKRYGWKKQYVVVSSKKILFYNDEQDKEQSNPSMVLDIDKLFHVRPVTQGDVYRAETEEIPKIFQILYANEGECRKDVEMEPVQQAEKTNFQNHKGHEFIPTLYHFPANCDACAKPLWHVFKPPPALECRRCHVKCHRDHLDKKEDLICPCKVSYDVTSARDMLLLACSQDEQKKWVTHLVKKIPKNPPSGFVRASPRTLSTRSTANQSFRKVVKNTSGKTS

By IC50 is commonly meant the midpoint of a concentration-inhibition curve. As a reminder, the inhibition is the percentage by which the read-out fell short of the control. The low end stands for a weak effect, the high end for a strong effect. What is called EC50 is the concentration that produces a half-maximal response. Read a low EC50 as higher potency in that assay. Broadly, the melting point is the temperature of the solid-liquid transition. With `O=C(Nc1ccc2[nH]ncc2c1)C1CCN(Cc2ccccc2)C1` (centres unmarked) [Compound 4a, 1-Benzyl-N-(1H-indazol-5-yl)pyrrolidine-3-carboxamide], the melting point was 203 to 204 °C. For the same compound, on ROCK I [1], the IC50 was 0.27 µM, the “ROCK I activity compared in words” value is reported as “activity profiles superior to DL0805”, testing at 20 µM gave an inhibition of 73.2% and the “fold more active than DL0805 (ROCK I IC50)” value was 24 fold. Moreover, in the series with rat aortic rings [2], the EC50 was 4 µM. In the series on rat aortic rings [3], this compound came in with an EC50 of 5.62 µM. Moreover, the “vasorelaxant activity compared with fasudil” value in the series on rat aortic rings [4] is on record as “comparable vasorelaxant activity to the approved drug fasudil”.
Regarding `Cc1ccc(CN2CCC(C(=O)Nc3ccc4[nH]ncc4c3)C2)cc1` (centres unmarked) [Compound 4b, N-(1H-Indazol-5-yl)-1-(4-methylbenzyl)pyrrolidine-3-carboxamide], on ROCK I [1], the IC50 was 0.17 µM, the “ROCK I activity compared in words” value is “activity profiles superior to DL0805”, the inhibition at 20 µM was 75.8% and the “fold more active than DL0805 (ROCK I IC50)” value was determined as 39 fold. The EC50 in the series with rat aortic rings [2] was 3.47 µM. In the series with rat aortic rings [3], the midpoint of the response, the EC50, lay at 4.07 µM. For the same compound, the “vasorelaxant activity compared with fasudil” value in the series with rat aortic rings [4] was “comparable vasorelaxant activity to the approved drug fasudil”.
As for `N#Cc1n[nH]c2ccc([N+](=O)[O-])cc12` [DL0805, 5-Nitro-1H-indazole-3-carbonitrile, reference compound], the figures for the IC50 at ROCK I [1] and on ROCK I [5] were 6.67 µM and 6.7 µM, respectively. At ROCK I [1], this compound came in with an inhibition at 20 µM of 72.3%. The EC50 was found to be 9.44 µM in the series with rat aortic rings [2] and 28.8 µM in the series on rat aortic rings [3].
